2 compounds from article PMC6277434, “Discovery of a potent HMG-CoA reductase degrader that eliminates statin-induced reductase accumulation and lowers cholesterol” (Nature Communications, 2018) can be followed below.

The structures appear in SMILES notation. Where only a bound is given, the exact number is not on record here.

Assay [1] addresses T1, HMGCR (Cricetulus griseus, UniProt P00347).
T1 construct: endogenous in cells; host or cells: CHO-7, CHG, SRD-13A, SRD-15
T1 sequence (P00347 1-887): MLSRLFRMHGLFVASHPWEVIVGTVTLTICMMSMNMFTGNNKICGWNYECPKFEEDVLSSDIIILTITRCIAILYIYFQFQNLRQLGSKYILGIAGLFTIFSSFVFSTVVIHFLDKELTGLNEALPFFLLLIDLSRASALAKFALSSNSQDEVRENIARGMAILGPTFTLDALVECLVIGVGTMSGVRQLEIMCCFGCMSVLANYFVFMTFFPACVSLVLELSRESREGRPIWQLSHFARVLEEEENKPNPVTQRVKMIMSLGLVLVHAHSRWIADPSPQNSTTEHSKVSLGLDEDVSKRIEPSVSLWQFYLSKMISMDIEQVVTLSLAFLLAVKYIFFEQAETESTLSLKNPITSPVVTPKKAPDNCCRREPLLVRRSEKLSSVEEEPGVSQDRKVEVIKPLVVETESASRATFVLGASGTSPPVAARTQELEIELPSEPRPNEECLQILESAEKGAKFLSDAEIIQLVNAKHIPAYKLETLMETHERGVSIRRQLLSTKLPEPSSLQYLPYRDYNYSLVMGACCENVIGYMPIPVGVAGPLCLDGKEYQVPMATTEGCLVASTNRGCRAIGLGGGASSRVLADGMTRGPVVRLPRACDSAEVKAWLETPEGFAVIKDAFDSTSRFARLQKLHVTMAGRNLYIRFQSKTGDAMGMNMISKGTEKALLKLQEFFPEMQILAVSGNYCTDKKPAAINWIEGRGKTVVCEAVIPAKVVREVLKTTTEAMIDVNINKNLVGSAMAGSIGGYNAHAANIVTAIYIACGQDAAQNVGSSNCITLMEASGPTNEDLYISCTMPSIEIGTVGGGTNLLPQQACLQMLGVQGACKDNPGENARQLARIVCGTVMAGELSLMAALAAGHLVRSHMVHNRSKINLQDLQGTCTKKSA
Nature of the assay: HMGCR ubiquitination assay in CHO-7 cells. Format: cell-based, Chinese hamster. As for the experimental part: To detect endogenous HMGCR ubiquitination, CHO-7 cells were treated as described in figure legends. Two 10-cm dishes of cells were harvested and lysed in 600 μl of immunoprecipitation buffer (1× PBS, 1% Triton X-100, 5 mM EDTA, 5 mM EGTA) supplemented with protease inhibitor cocktail, 0.1 mM Leupeptin, 10 μM MG-132, and 10mM N-ethylmaleimide. Lysates were pre-cleared with 3 μg of normal rabbit IgG (D110502, Sangon) and 40 μl of protein A/G plus-agarose (sc-2003, Santa Cruz Biotechnology) for 1 h at 4 °C, followed by immunoprecipitation with 10 μg of rabbit polyclonal anti-HMGCR and 100 μl of protein A/G plus-agarose overnight at 4 °C. After washing with immunoprecipitation buffer containing protease inhibitor cocktail for three times, immunoprecipitates were eluted with 2× loading buffer (75 mM Tris-HCl, pH 6.8, 50 mM NaCl, 6% SDS, 15% glycerol, and 0.02% bromophenol blue) at 95 °C for 10 min. Supernatants were then mixed with equal volume of membrane protein solubilization buffer and incubated at 37 °C for 30 min. Samples were finally subjected to immunoblotting as described above.
To assay for the ubiquitination of overexpressed HMGCR protein, cells were first transfected with indicated plasmids. A similar protocol was employed except that lysates were immunoprecipitated with 40 μl of anti-Flag M2 affinity gel (A2220, Sigma-Aldrich).

Assay [2] addresses T1, HMGCR. In words: Immunoblotting of HMGCR protein in SRD-13A (Scap-deficient CHO-7) cells. Conditions: for HMGCR protein level, mean: SRD-13A, 16 h. Format: cell-based, Chinese hamster. The procedure: CHO-7 (Chinese hamster ovary cell, a clone of CHO-K1 cell line selected for growth in LPDS) and Huh7 (a human hepatocellular carcinoma cell line), SRD-13A (a Scap-deficient CHO-7 cell line) and SRD-15 (an Insig-1 and Insig-2-deficient CHO-7 cell line) were generous gifts from Russell Debose-Boyd at UT Southwestern Medical Center, USA. All cells were grown in a monolayer at 37 °C with 5% CO2. Huh7 cells were maintained in medium A supplemented with 10% FBS. CHO-7 and SRD-15 cells were maintained in medium B supplemented with 5% FBS. SRD-13A cells were maintained in medium B with 5% FBS, 5 μg ml^−1 cholesterol, 1 mM sodium mevalonate, 10 μM sodium oleate. No cell lines used in this study were found in the database of commonly misidentified cell lines that is maintained by ICLAC and NCBI Biosample. The cell lines have not been authenticated recently. No test for mycoplasma contamination was performed.
Cells were harvested and homogenized in the RIPA buffer (50 mM Tris-HCl, pH 8.0, 150 mM NaCl, 2 mM MgCl2, 1.5% NP-40, 0.1% SDS, and 0.5% sodium deoxycholate) supplemented with protease cocktail inhibitor, 10 μM MG-132, 10 μg ml^−1 leupeptin and 1 mM phenylmethylsulfonyl fluoride. The protein concentrations of lysates were determined using BCA method (Beyotime). Samples were mixed with the membrane protein solubilization buffer (62.5 mM Tris-HCl, pH 6.8, 15% SDS, 8 M urea, 10% glycerol, and 100 mM DTT) plus the 4× loading buffer (150 mM Tris-HCl, pH 6.8, 12% SDS, 30% glycerol, 6% 2-mercaptoethanol, and 0.02% bromophenol blue) and incubated for 30 min at 37 °C. Proteins were resolved by SDS-PAGE and transferred to nitrocellulose membranes (GE Healthcare). Immnoblots were blocked with 5% non-fat milk in TBS containing 0.075% Tween-20 (TBST) and probed with indicated antibodies overnight at 4 °C. After washing in TBST for five times, blots were incubated with HRP-conjugated secondary antibodies for 2 h at room temperature. Immunoreactivity was developed with Clarity Western ECL chemiluminescent substrates (170–5061, Bio-Rad). Western blot images were captured by Amersham Imager 600 (GE Healthcare), and integrated optical intensities of each band were quantified by Image-Pro Plus 6 software (Media Cybernetics). Uncropped blots are shown in Supplementary Figs. 9–13.

With `C=CCC(O)(CC=C)CCCC(C)C1CCC2C3C(O)C=C4C(C)(C)C(O)CCC4(C)C3CCC12C` (stereo not drawn) [Cmpd 81], the “ubiquitination of endogenous HMGCR” value at HMGCR [1] (CHO-7, with 10 μM MG-132, 3 h) is given as “dose-dependent increase”. Moreover, on HMGCR [1] (cells co-expressing wild-type HMGCR and Insig-1), the “ubiquitination of transfected HMGCR” value is reported as “markedly increase”.

Take `CC[C@H](C)C(=O)O[C@H]1C[C@@H](C)C=C2C=C[C@H](C)[C@H](CC[C@@H]3C[C@@H](O)CC(=O)O3)[C@H]21` [Lovastatin, lovastatin]: the “increase of HMGCR protein” value on HMGCR [2] (SRD-13A cells, lovastatin 16 h) is recorded as at most 8 fold. The “HMGCR protein level, mean” value was 0.9418 at HMGCR [2] (lovastatin 0.001 uM); 1.178 on HMGCR [2] (lovastatin 0.003 uM); 2.758 at HMGCR [2] (lovastatin 0.01 uM); 4.962 on HMGCR [2] (lovastatin 0.03 uM); 7.087 on HMGCR [2] (lovastatin 0.1 uM); 7.139 on HMGCR [2] (lovastatin 0.3 uM). For the same compound, the “HMGCR protein level, mean” value came to 8.174 at HMGCR [2] (lovastatin 1 uM), 8.262 on HMGCR [2] (lovastatin 3 uM) and 7.249 on HMGCR [2] (lovastatin 10 uM).
